As a reminder, the IC50 is the midpoint of a concentration-inhibition curve. Usually Papp A→B stands for the apparent permeability from the apical to the basolateral side of a cell layer. One may read the solubility as how much of the substance goes into solution per volume.

Here are results for eight compounds from patent US8071810B2, “C5a receptor antagonists” (Jerini AG, priority 2005, dated 2011).

Converted amounts (≈) assume the structure as drawn. “And” between values parts separate entries of the source, which are not always exact repeats. Equal entries are not always repeated. Where two headings read alike, the source gives them in different places.

The subject of data set [1] is E. coli induced oxidative burst in human whole blood. In words: E. coli induced oxidative burst in human whole blood (Phagoburst kit, Example 26). The class given is cell-based. Conditions: read-out: IC50 for the inhibition of the E. coli induced oxidative burst in human whole blood. As for the experimental part: The whole blood assay is carried out according to the instructions from the Phagoburst-Kit (Orpegen Pharma). 50 μg/ml of Refludan is used to inhibit blood clotting (Mollnes et al. 2002 Blood 100: 1869). Freshly drawn, anticoagulated blood is cooled over ice and 100 μl thereof are added to 10 μl of the compound solution containing at most 1.3% of DMSO. The mixture is incubated for 10 minutes at 37° C. After this the samples are put on ice again and 20 μl of opsonisated E. coli suspension (10^9 cells/ml) is added followed by 10 minutes of incubation at 37° C. 20 μl of the substrate are added to the cells followed by another 10 minutes of incubation at 37° C. After this 2 ml of lysis buffer are added to the cells, which are then kept at room temperature for 20 minutes. The cellular components are separated by centrifugation at 250×g for 5 minutes. The supernatant is discarded and 3 ml of washing solution are added to the pellet. The cells are centrifuged again and the resulting pellet is taken up in 200 μl DNA staining solution. The neutrophiles are analysed by means of a FACS device (FACSCalibur, Becton-Dickinson) according to the parameters given in the manual. […] It can be seen that, due to the determined activity, the compounds of this invention are suited to be used as therapeutics in human.

The target of data set [2] is T1, human C5a receptor (CD88) (Homo sapiens, UniProt P21730).
T1 construct: expressed in transfected cells; host or cells: rat basophilic leukemia (RBL) cells, stably transfected
T1 sequence (P21730 1-350): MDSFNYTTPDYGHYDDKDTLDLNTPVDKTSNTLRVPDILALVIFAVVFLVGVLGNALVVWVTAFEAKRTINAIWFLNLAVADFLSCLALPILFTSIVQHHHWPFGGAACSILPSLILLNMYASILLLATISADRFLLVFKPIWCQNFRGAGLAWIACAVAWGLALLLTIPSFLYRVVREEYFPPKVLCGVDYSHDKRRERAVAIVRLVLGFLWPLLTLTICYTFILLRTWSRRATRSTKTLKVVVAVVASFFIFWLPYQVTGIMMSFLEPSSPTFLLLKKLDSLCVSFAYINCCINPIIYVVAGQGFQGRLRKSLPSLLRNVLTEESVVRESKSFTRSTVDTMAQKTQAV
The data set is described as follows: Agonism in enzyme release assay without C5a stimulus (Example 32). Format: cell-based. Conditions: concentration applied 7.1 μM. As for the experimental part:
The assay has been described by Köhl (Köhl 1997 The Anaphylatoxins. In: Dodds, A. W., Sim, R. B. (Eds.), Complement: A Practical Approach. Oxford: 135). Basophile leukemia cells from rats (RBL), which express the human C5a receptor (CD88), are cultivated in DMEM with 10% fetal calf serum, 100 U/ml penicillin, 100 μg/ml streptomycin and 2 mM glutamin (all constituents are from Biochrome, Berlin) at 37° C. and with 10% CO2 until a confluent layer is obtained. All following details refer to a tissue culture flask with 75 cm^2 surface. The used up medium is removed. The cells are washed with 10 ml PBS (Dulbecco's PBS, Biochrome) and then covered with 3 ml cell dissociation solution (CDS, Sigma). The cells are incubated for 1 minute at room temperature. Then the CDS is removed and the cells are incubated for further 10-15 minutes at 37° C. to detach the cells completely from the flask. 20 μl solution of the compound to be testet are used in the assay. The assay solution must not contain more than 2.8% DMSO. The dilution series are prepared in ⅓ or ½ steps. To the 20 μl of the compound solutions 75 μl RBL cells are added which are prepared as follows: After the detachment of the cells from the flask surface they are taken up with 10 ml HAG-CM (20 mM HEPES; 125 mM NaCl, 5 mM KCl, 1 mM CaCl2, 1 mM MgCl2, 0.5 mM glucose, 0.25% BSA. HEPES preparation: 2.3 g/l HEPES salt+2.66 g/l HEPES acid) thermostated at 37° C. The cells are counted and centrifuged (200 g, 10 min). The cell pellet is taken up with pre-heated HAG-CM, and the cell density is adjusted to 2×10^6 Zellen/ml. The cells are incubated for 5 minutes at 37° C. 2.7 μl of a cytochalasin B solution (1000 μg/ml in DMSO, Sigma) are added per ml cell suspension. The Zellen are incubated for another 3 min at 37° C. Then, 75 μl of the cell suspension are added to the 20 μl solution containing the compounds to be tested. Thus a volume of […] per well is obtained. The cells are again incubated for 10 minutes at 37° C. Then 10 μl hrC5a (10.5 nM in HAG-CM, Sigma) are added per well, which is followed by 5 minutes incubation at 37° C. After this the plates are put on ice and centrifuged for 3 minutes at 1200×g and 4° C. 75 μl of the supernatant are added to 100 μl substrate solution (2.7 mg/ml p-nitrophenyl-N-acetyl-b-D-glucosaminide (Sigma) in 42.5 mM sodium acetate, pH 4.5). The plate is incubated for 1 hour at 37° C. Per well 75 μl 0.4 M glycine (pH 10.4) are added. After this the plate can be measured at a wave length of 405 nm. The IC50 value is determined by solving the four parameter equation y=((A−D)/(1+(x/C)^B))+D.
The only difference is the fact that 30 μl of the substance to be tested are mixed with 75 μl of the cell suspension described in example 28. The cells are not pre-incubated and no C5a is added to stimulate enzyme release.

The nature of data set [3]: AB permeability in TC-7 cell based assay (Example 34). Format: in vitro ADME. The settings on record: human, Caco-2, TC-7 cells, apical pH 6.5 / basolateral pH 7.4, 120 min. On the procedure:
Compounds to be tested are prepared at a concentration of 50 μM in HBSS-MES (5 mM, pH 6.5) (from a 10 mM stock solution in 100% DMSO). ^14C-mannitol (about 4 μM) is added and the solution is mixed and centrifuged. The supernatant is added to the apical side of a TC-7 cell culture (passage 15, in 24 well transwell plate) to obtain a DMSO concentration of 1%. At the basolateral side HBSS-HEPES (5 mM, pH 7.4) is placed. Subsequently, the cells are incubated for 120 minutes at 37° C. The integrity of the TC-7 cell layer is checked by means of the added mannitol (Papp <2.5 10^−6 cm/s). The Permeabilität Papp [cm/s] is equal to (VR×CR120)/(Δt×A×(CD,mid−CR,mid)). VR is the volume of the receiver chamber, CR120 the concentration the test compound in the receiver chamber after 120 minutes, Δt the incubation time, A the area of the TC-7 cell layer, CD,mid the midpoint concentration of the test substance in the donor chamber and CR,mid the concentration of the test compound in the receiver chamber.

Data set [4] in a line: Stability (shelf life) as solid TFA salt, RP-HPLC (Example 25). The class given is physicochemical. The settings on record: light, room temperature, up to 7 days. As for the experimental part:
The fractions containing the desired compound are lyophilized. In this way 1-40 mg of the compounds 11 and 13 are isolated as solid. Due to the basic amino groups the compounds are obtained as TFA salts. 0.5-10 mg of the solid are stored under the influence of light at room temperature to determine their stability over time.
The conditions were as follows:
FIG. 1 A): after purification via HPLC (solution in MeCN/H2O/TFA),
FIG. 1 B) after lyophilization (0 days of storage as solid)
FIG. 1 C) after 7 days of storage as solid

In data set [5] the target is T1, human C5a receptor (CD88). In words: C5a induced enzyme (glucosaminidase) release assay in RBL cells expressing the human C5a receptor (Example 28). Format: cell-based. Conditions: for IC50: RBL cells with human C5aR. An outline of the steps:
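Rat basophilic leukemia (RBL) cells expressing human C5a receptor, at 2×10^6 cells/ml, primed with cytochalasin B, then incubated with test compound 10 min at 37 °C.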

Data set [6] concerns the target T2, C5a receptor (Homo sapiens, UniProt P21730).
T2 sequence (P21730 1-350): T1 sequence (P21730 1-350)
The data set is described as follows: Binding of 125I-C5a to human C5aR transfected HEK293 cells (Example 27). Details: expressed in transfected cells; host or cells: HEK293 cells. Conditions: 125I-C5a tracer, read-out: IC50 for the inhibition of the binding of C5a to the C5a receptor. On the procedure: The binding studies are done as determination of IC50 values with radioactively labeled C5a (125I) as tracer. For this purpose, human C5aR transfected HEK293 cells are adjusted to a concentration of […]. 30 μl of the cell suspension are added into a microtiter plate. Then the C5a receptor antagonists are added followed by 10 minutes pre-incubation at room temperature. After that, 10 μl of labelled C5a are added (15.000 cpm). The mixture is now incubated over ice for 30 minutes. After this the cells are isolated by means of a filter plate (Millipore MHVB 4510) and washed two times with 100 μl HAG-CM each (see example 32). The cells are dried and, after transferring the filter plate onto the adapter plate (Canberra 6005178), 50 μl/well Microscint 0 are added and the plate is measured in the scintillation counter.

Data set [7] has as its target T2, C5a receptor. Conditions: cited from earlier work.
Data set [8] is described as follows: Solubility in aqueous HEPES buffer by HPLC (Example 33). The class given is physicochemical. Conditions: kinetic from dmso stock. On the procedure: To determine the solubility the compound to be measured is dissolved (e.g, […] of a 5 mM solution in DMSO) in organic solvent (e.g. 198 μl DMSO) as well as in aqueous buffer solution (e.g. 198 μl HEPES buffer). Both solutions are analyzed via analytical HPLC and the areas under the peaks are compared. The value for the organic solution is taken as 100%.

Where [9] appears, read: read-out: IC50 for the inhibition of C5a induced enzyme release.
[10] abbreviates: inhibition of C5a induced enzyme release, read-out: Activity-range (antagonistic activity, IC50 enzyme release).

`CCc1c(N)cc(Cl)c(CC)c1NC(=O)N(c1ccc(OC)cc1F)[C@@H](C)c1ccc(Cl)cc1` [compound 102, (S)-3-(3-amino-5-chloro-2,6-diethyl-phenyl)-1-[1-(4-chloro-phenyl)-ethyl]-1-(2-fluoro-4-methoxy-phenyl)-urea]: the IC50 in data set [1] is 3.2 µM. In addition, in data set [2], the “Agonism (% of the maximum enzyme release induced by C5a)” value was 0.00%. The Papp A→B at 120 min, 50 μM in data set [3] stood at 1.1 ×10⁻⁶ cm/s.
With `CCc1c(N)cc(Cl)c(CC)c1NC(=O)N(Cc1ccc(OC)cc1)c1ccc(C(C)C)cc1` [compound 13], the “Stability on storage as solid” value in data set [4] is listed as “does not show such instabilities”.
Consider `CCc1c(N)cc(Cl)c(CC)c1NC(=O)N(Cc1ccc(Cl)cc1)c1ccc(NC)cc1` [compound 120, 3-(3-amino-5-chloro-2,6-diethyl-phenyl)-1-(4-chloro-benzyl)-1-(4-methylamino-phenyl)-urea], for which, in data set [5] (ratio of enzyme release IC50 values), the “Improvement of the antagonistic activity by a factor (vs compound 98, CH2 exchanged by NH)” value stood at 4.5. Also, the IC50 amounted to 1.9 µM in data set [1] and 0.0865 µM in data set [6].
Take `Cc1ccccc1C1c2ccccc2CCN1CC(=O)N(Cc1cccc(O)c1)C1Cc2ccccc2C1` (stereo not drawn) [Compound 9, N-(3-Hydroxy-benzyl)-N-indane-2-yl-2-(1-o-tolyl-3,4-dihydro-1H-isochinolin-2-yl)-acetamide, reference compound]: in data set [5] (setting [9]), the IC50 was 7.15 µM and 7.14 µM. In data set [7], the “activity, inhibition of C5a induced calcium mobilization” value is listed as 24 nM.
For `CN(CC(=O)N(Cc1ccccc1F)C1Cc2ccccc2C1)C(c1ccccc1)c1ccccc1` [Compound 10, 2-(Benzhydryl-methyl-amino)-N-(2-fluoro-benzyl)-N-indane-2-yl-acetamide, reference compound], the half-maximal inhibitory concentration (IC50) in data set [5] (setting [9]) is greater than 4.76 µM; in data set [5] (setting [10]) it was greater than 5 µM. Also, the “activity, inhibition of C5a induced calcium mobilization” value in data set [7] is 465 nM.
In the case of `CCc1c(N)cc(Cl)c(CC)c1NC(=O)N(c1ccc(C(C)C)cc1)C1CCc2cc(Cl)ccc21` (stereo not drawn) [compound 88, 3-(3-amino-5-chloro-2,6-diethyl-phenyl)-1-(5-chloro-indane-1-yl)-1-(4-isopropyl-phenyl)-urea], the values for the half-maximal inhibitory concentration (IC50) in data set [5] (setting [10]) and in data set [6] were 0.06 to 0.2 µM and 0.044 µM, respectively.
For the compound `CCc1c(N)cc(Cl)c(CC)c1NC(=O)N(Cc1ccc(Cl)cc1)c1ccc(OC)c2cccnc12` [compound 125, 3-(3-amino-5-chloro-2,6-diethyl-phenyl)-1-(4-chloro-benzyl)-1-(5-methoxy-chinolin-8-yl)-urea], the IC50 in data set [5] (setting [10]) lay within 0.06 to 0.2 µM. Also, the “Agonism (% of the maximum enzyme release induced by C5a)” value in data set [2] stood at 0.00%. The compound further registered a solubility in data set [8] of 4 µM (≈ 2.09 µg/mL). The compound further came in with a Papp A→B at 120 min, 50 μM in data set [3] of 2.9 ×10⁻⁶ cm/s.
On to `CCc1c(N)cc(Cl)c(CC)c1NC(=O)N(c1ccc(NC)cc1)[C@@H](C)c1ccccc1` [compound 132, (S)-3-(3-amino-5-chloro-2,6-diethyl-phenyl)-1-(4-methylamino-phenyl)-1-(1-phenyl-ethyl)-urea], for which the IC50 in data set [5] (setting [10]) was less than 0.06 µM; in data set [1], 0.62 µM; in data set [6], 0.0434 µM.
